# Results from PubChem BioAssay (NCI).
#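 In this assay, cells in 96-well plates receive the compound at five concentrations for 48 hours. Endpoints are linearly interpolated between the surrounding concentrations. Abbreviation: GI50, concentration required for 50% inhibition of growth. TGI: concentration producing complete growth inhibition.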 Starred links: 1 amine or outer side, 2 acyl side, 3 side chain; linkers in the order of their positions; H or OH if unused. Positions of bridges follow the written chain, without caps; N, C: chain ends. Non-standard residues stand in square brackets, D forms with d. Residues, ends and D or L forms follow the SMILES beside them. Chains are numbered I, II in the order given. Actinocin(1to9) = Cc1c2oc3c(C)ccc(C(=O)[*:2])c3nc-2c(C(=O)[*:1])c(N)c1=O; NMeV = CN[CH](C(=O)O)C(C)C; Sar = CNCC(=O)O
# Assays:
# Test in all cases: inhibition of tumour cell growth, NCI panel, 48 h
# OVCAR-8 ovarian = system: OVCAR-8 ovarian
# COLO 205 colon = system: COLO 205 colon
# HOP-62 NSCLC = system: HOP-62 NSCLC
# U251 CNS = system: U251 CNS
# RPMI-8226 leukemia = system: RPMI-8226 leukemia
# NCI/ADR-RES ovarian = system: NCI/ADR-RES ovarian
# A549 NSCLC = system: A549 NSCLC
# NCI-H226 lung = system: NCI-H226 lung
# CAKI-1 renal = system: CAKI-1 renal
# IGROV1 ovarian = system: IGROV1 ovarian
# SW-620 colon = system: SW-620 colon
SMILES,TGI (OVCAR-8 ovarian),TGI (COLO 205 colon),TGI (HOP-62 NSCLC),TGI (U251 CNS),TGI (RPMI-8226 leukemia),TGI (NCI/ADR-RES ovarian),TGI (A549 NSCLC),TGI (NCI-H226 lung),TGI (CAKI-1 renal),TGI (IGROV1 ovarian),TGI (SW-620 colon),GI50 (OVCAR-8 ovarian),GI50 (COLO 205 colon),GI50 (HOP-62 NSCLC),GI50 (U251 CNS),GI50 (SW-620 colon),GI50 (NCI/ADR-RES ovarian),GI50 (A549 NSCLC),GI50 (NCI-H226 lung)
CCOC(=O)C(/C(=N/S(=O)(=O)c1cc(C)c(Cl)cc1[S-])[n+]1ccc(N(C)C)cc1)=C(/O)c1ccc([N+](=O)[O-])cc1,> 100 µM,90.2 µM,78.7 µM,> 100 µM,63.7 µM,> 100 µM,> 100 µM,> 100 µM,99.7 µM,> 100 µM,,,,,,,,,
CC(C)(C)OC(=O)n1c2ccccc2c2c(=O)nc(N3CCCCC3)sc21,> 100 µM,> 100 µM,> 100 µM,> 100 µM,> 100 µM,> 100 µM,> 100 µM,,> 100 µM,> 100 µM,> 100 µM,,,,,,,,
O=C(O[C@@H](/C=C/c1ccccc1)P1(=O)N(Cc2ccccc2)[C@H]2CCCC[C@@H]2N1Cc1ccccc1)c1ccccc1,> 100 µM,3.17 µM,10.8 µM,11.1 µM,7.31 µM,> 100 µM,> 100 µM,13.2 µM,11.5 µM,> 100 µM,> 100 µM,,,,,,,,
O=c1[nH]c(Nc2ccc(Cl)c(C(F)(F)F)c2)nc2nc[nH]c12,> 100 µM,> 100 µM,> 100 µM,> 100 µM,> 100 µM,> 100 µM,> 100 µM,> 100 µM,> 100 µM,> 100 µM,> 100 µM,,,,,,,,
OC(c1ccccc1)(c1ccccc1)c1nccc2ccccc12,> 100 µM,> 100 µM,43.2 µM,> 100 µM,> 100 µM,> 100 µM,> 100 µM,,> 100 µM,> 100 µM,,,,,,,,,
Cc1c(N2C(=O)/C(=C/c3ccc(Cl)cc3)N=C2c2ccccc2)c(=O)n(-c2ccccc2)n1C,> 100 µM,30.1 µM,> 100 µM,96.3 µM,42.9 µM,> 100 µM,99.4 µM,96.7 µM,> 100 µM,88.5 µM,> 100 µM,,,,,,,,
Nc1ncnc2c1sc1nc3ccccc3n12,> 100 µM,> 100 µM,> 100 µM,> 100 µM,> 100 µM,> 100 µM,> 100 µM,> 100 µM,> 100 µM,> 100 µM,> 100 µM,,,,,,,,
Cc1coc2c1C[C@@]1(C)[C@H](CCC[C@@H]1C)[C@H]2O,> 100 µM,> 100 µM,75.1 µM,> 100 µM,62.3 µM,68.3 µM,,56 µM,> 100 µM,65.4 µM,> 100 µM,,,,,,,,
N#CC12Cc3cc4c(cc3-c3cccc(c31)CCN2C(=O)c1ccccc1)OCO4 (stereo not given),> 100 µM,> 100 µM,> 100 µM,> 100 µM,> 100 µM,,> 100 µM,> 100 µM,,> 100 µM,> 100 µM,,,,,,,,
c1ccc(-c2nnn3c2NC2=C(CCCC2)C3c2ccccc2)cc1 (stereo not given),5.44 µM,30.2 µM,39.2 µM,26 µM,31.9 µM,52.4 µM,32.8 µM,> 100 µM,38.8 µM,40.2 µM,28.9 µM,,,,,,,,
COc1ccc(C(=O)C2=NON3OC23C(=O)c2ccc(OC)cc2)cc1 (stereo not given),21 µM,21.7 µM,> 100 µM,30.3 µM,> 50.7 µM,,48.5 µM,33.3 µM,6.79 µM,27.3 µM,11.4 µM,,,,,,,,
COc1cc2oc(=O)ccc2cc1C(=O)CC(C)C,> 100 µM,> 100 µM,> 100 µM,> 100 µM,> 100 µM,> 100 µM,> 100 µM,> 100 µM,42.8 µM,> 100 µM,> 100 µM,,,,,,,,
Cn1cnc([N+](=O)[O-])c1Sc1nc(N)nc2c1ncn2C1OC(CO)C(O)C1O (stereo not given),> 100 µM,23.8 µM,> 100 µM,> 100 µM,> 95.5 µM,> 100 µM,> 91 µM,> 89.3 µM,> 100 µM,> 82.1 µM,> 100 µM,,,,,,,,
CN(C)c1ccc(C=Nc2ccc(-c3nc4ccccc4[nH]3)cc2)cc1,> 100 µM,> 100 µM,> 100 µM,> 100 µM,> 100 µM,27.7 µM,> 100 µM,> 100 µM,> 100 µM,> 100 µM,> 100 µM,,,,,,,,
"CCC(C)C1NC(=O)C(NC(=O)c2c3nc4c(C(=O)NC5C(=O)NC(C(C)CC)C(=O)N6CCCC6C(=O)N(C)CC(=O)N(C)C(C(C)C)C(=O)OC5C)ccc(C)c4oc-3c(C)c(=O)c2N)C(C)OC(=O)C(C(C)C)N(C)C(=O)CN(C)C(=O)C2CCCN2C1=O (stereo not given) (I: TIP[Sar][NMeV] / II: TIP[Sar][NMeV]; ester I:1-I:C, II:1-II:C; linker I:N-II:N via Actinocin(1to9); configuration not given here)",0.125 µM,0.00309 µM,,10.9 µM,0.0322 µM,2.63 µM,10.9 µM,,0.0861 µM,,0.0776 µM,,,,,,,,
Cn1c(=O)[nH]c2nncnc2c1=O,> 62.5 µM,501 µM,181 µM,312 µM,389 µM,> 625 µM,> 525 µM,28.7 µM,46.5 µM,133 µM,> 625 µM,,,,,,,,
Cc1ccccc1N=Nc1c(O)c(S(=O)(=O)O)cc2cc(S(=O)(=O)O)ccc12,> 100 µM,> 100 µM,> 100 µM,> 100 µM,,> 100 µM,> 100 µM,> 100 µM,> 100 µM,> 100 µM,> 100 µM,,,,,,,,
Clc1ccccc1/C=c1\nc(-c2ccccc2)n2c1nc1ccccc12,> 100 µM,> 100 µM,50.3 µM,61.3 µM,> 100 µM,> 100 µM,> 100 µM,> 100 µM,> 100 µM,> 100 µM,> 100 µM,,,,,,,,
CC(=O)OC1CC[C@@]2(C)C(=CC[C@@H]3[C@@H]2CC[C@]2(C)Nc4nn(S(C)(=O)=O)cc4C[C@@H]32)C1 (stereo not given in full),> 100 µM,> 100 µM,> 100 µM,> 100 µM,> 100 µM,> 100 µM,,92 µM,> 100 µM,> 100 µM,,,,,,,,,
CC(C)(C)OC(=O)NC(CCCCNC(=O)OCc1ccccc1)C(=O)NCCNc1ccc(NCCNC(=O)C(CCCCNC(=O)OCc2ccccc2)NC(=O)OC(C)(C)C)c2c1C(=O)c1ccccc1C2=O (stereo not given),> 78.1 µM,> 100 µM,> 74.3 µM,17.1 µM,> 27.4 µM,> 100 µM,> 100 µM,> 100 µM,> 100 µM,> 100 µM,> 100 µM,,,,,,,,
O=C(CSc1nc2ccc([N+](=O)[O-])cc2s1)c1ccc2ccccc2c1,> 100 µM,> 100 µM,> 100 µM,> 100 µM,> 100 µM,> 100 µM,> 100 µM,> 100 µM,> 100 µM,> 100 µM,> 100 µM,,,,,,,,
OCc1cn(C(c2ccccc2)(c2ccccc2)c2ccccc2)cn1,> 100 µM,> 100 µM,> 100 µM,> 100 µM,> 100 µM,> 100 µM,> 100 µM,> 100 µM,> 100 µM,> 100 µM,> 100 µM,,,,,,,,
O=C(O)c1ccc(C(=O)c2ccccc2C(=O)O)cc1C(=O)O,> 100 µM,> 100 µM,> 100 µM,> 100 µM,> 100 µM,> 100 µM,> 100 µM,> 100 µM,> 100 µM,> 100 µM,> 100 µM,,,,,,,,
Nc1c(C(=O)O)nnc2cc(Cl)c(Cl)cc12,> 100 µM,> 100 µM,> 100 µM,> 100 µM,> 100 µM,> 100 µM,> 100 µM,> 100 µM,> 100 µM,> 100 µM,> 100 µM,,,,,,,,
COc1nc2[nH]ccc2c(=O)[nH]1,> 100 µM,> 100 µM,,> 100 µM,> 100 µM,,> 100 µM,9.92 µM,> 100 µM,> 100 µM,> 100 µM,,,,,,,,
COCC1CCCN1c1ccc(C=N/C(C#N)=C(\N)C#N)cc1 (stereo not given),> 100 µM,> 100 µM,> 100 µM,> 100 µM,,> 100 µM,> 100 µM,> 100 µM,,,> 100 µM,45.3 µM,> 100 µM,43.6 µM,17.2 µM,> 100 µM,> 100 µM,14 µM,4.68 µM
